# Reference: publication PMC12444472, “BCI inhibits MKP3 by targeting the kinase-binding domain and disrupting ERK2 interaction” (The Journal of Biological Chemistry, 2025)
# Positions count from the first letter of the chain named.
# Assays:
# Test in all cases: MST affinity of MKP3 mutant
# Type in all cases: binding
# Details in all cases: full-length mutant
# MKP3 E81G = target: T1, MKP3 E81G (Homo sapiens, UniProt Q16828, E81G)
# T1 construct: MKP3(1–381) (MKP3^FL); made in house; host or cells: Escherichia coli BL21(DE3)
# T1 sequence (Q16828 1-381 E81G): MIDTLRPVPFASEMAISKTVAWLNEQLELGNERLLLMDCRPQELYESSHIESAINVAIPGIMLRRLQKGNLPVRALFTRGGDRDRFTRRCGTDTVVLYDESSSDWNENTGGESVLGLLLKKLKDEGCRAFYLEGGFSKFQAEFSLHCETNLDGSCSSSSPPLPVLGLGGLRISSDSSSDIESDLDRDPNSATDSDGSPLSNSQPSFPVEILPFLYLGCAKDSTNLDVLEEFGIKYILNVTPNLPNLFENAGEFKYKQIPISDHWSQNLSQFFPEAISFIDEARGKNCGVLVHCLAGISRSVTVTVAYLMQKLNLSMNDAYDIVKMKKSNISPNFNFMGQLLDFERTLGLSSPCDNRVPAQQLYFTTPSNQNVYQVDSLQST
# Experimental: (§1) MST measurements were performed using fluorescently labeled proteins and the inhibitor BCI (CAS: 1245792-51-1; TargetMol) on a Monolith instrument (NanoTemper Technologies). The RED–Tris–NTA second-generation dye was dissolved in MST buffer (20 mM Hepes, pH 7.4, 200 mM NaCl, and 0.05% Tween-20) to prepare a 5 μM stock solution. Fluorescent labeling of MKP proteins followed the standard protocol of the MO-L018 RED–Tris–NTA protein labeling kit, leveraging the His-tag–dye interaction.
# (§2) The BCI compound was prepared as a 600 to 750 μM stock solution in MST buffer with 10% DMSO to enhance solubility, followed by a 16-point serial dilution. The diluted BCI solutions were thoroughly mixed with labeled MKP proteins (50 nM) at a 1:1 volume ratio, yielding a final volume of 10 μl. The reaction mixtures were incubated in the dark for 10 min at room temperature before being loaded into standard glass capillaries. Measurements were carried out on the Monolith instrument (100% LED, 40% IR laser power) with a 20 s laser on time. The normalized fluorescence values from triplicate measurements were averaged at each concentration and fitted to a 1:1 binding model using the KD model in MO.Affinity software (v3.0.5, NanoTemper Technologies) to determine the binding affinities between MKP proteins and the BCI inhibitor. The final reported Kd value represents the mean ± SD of Kd values obtained from three independent experiments, each fitted separately.
# (§3) Figure S3. Affinity measurements of MKP3 mutants with BCI by MST. The binding affinities of full-length MKP3 mutants (E81G, R83G, R85G, R87G, and R89A) to BCI were determined by MST and are presented as mean ± SD (n = 3). Wild-type MKP3 (MKP3^WT) was included as a reference.
# MKP3 R83G = target: T2, MKP3 R83G (Homo sapiens, UniProt Q16828, R83G)
# T2 construct: MKP3(1–381) (MKP3^FL); made in house; host or cells: Escherichia coli BL21(DE3)
# T2 sequence (Q16828 1-381 R83G): T1 sequence (Q16828 1-381 E81G) with G81E, R83G
# Experimental: as §1, §2, §3
# MKP3 R85G = target: T3, MKP3 R85G (Homo sapiens, UniProt Q16828, R85G)
# T3 construct: MKP3(1–381) (MKP3^FL); made in house; host or cells: Escherichia coli BL21(DE3)
# T3 sequence (Q16828 1-381 R85G): T1 sequence (Q16828 1-381 E81G) with G81E, R85G
# Experimental: as §1, §2, §3
# MKP3 R89A = target: T4, MKP3 R89A (Homo sapiens, UniProt Q16828, R89A)
# T4 construct: MKP3(1–381) (MKP3^FL); made in house; host or cells: Escherichia coli BL21(DE3)
# T4 sequence (Q16828 1-381 R89A): T1 sequence (Q16828 1-381 E81G) with G81E, R89A
# Experimental: as §1, §2, §3
structure (smiles),measurement,setting,value
"O=C1/C(=C/c2ccccc2)C(NC2CCCCC2)c2ccccc21 (stereo not shown) [BCI, (E)-2-benzylidene-3-(cyclohexylamino)-2,3-dihydro-1H-inden-1-one]",affinity for BCI compared with MKP3^WT,MKP3 E81G,significantly reduced affinity
same,affinity for BCI compared with MKP3^WT,MKP3 R83G,significantly reduced affinity
same,affinity for BCI compared with MKP3^WT,MKP3 R85G,affinities similar to the WT
same,affinity for BCI compared with MKP3^WT,MKP3 R89A,significantly reduced affinity
